Measurements reported in patent US10195466B2, “Method for treating skin cancer using radiation therapy” (HACKENSACK UNIVERSITY MEDICAL CENTER, priority 2014, dated 2019).

Columns and labels:
[1] = system: melanoma cell lines WC00046, WC00060 and WC00081; test: Cell survival (cell count) after irradiation with or without mitochondrial inhibitors; assay type: cell-based, human; details: compared to untreated cells, FIG. 1B; for cell killing of melanoma cells: inhibitor combined with high dose rate 2,400 mu/min, 5 μM in medium; for survival rates: melanoma cells, doses 2 Gy, 4 Gy and 8 Gy at 2,400 mu/min and 400 mu/min
Experimental: Three melanoma cell lines; WC00046, WC00060 and WC00081 were used in these examples, in which WC00046 was the most aggressive cell line (metastatic stage II), WC00060 was least aggressive (stage I, primary tumor site) and WC00081 was the medium aggressive (malignant melanoma primary site), purchased from Coriell Institute of Camden, N.J. The primary HEM (human epidermal melanocytes) was purchased from ScienCell Research Laboratories of Carlsbad, Calif. (#2220). Melanoma cells were grown in RPMI (Invitrogen) with 10% FBS, 1% Penicillin/Streptomycin. HEM cells were grown in Mel-M media (ScienCell Research Laboratories, Catalog number 2201) supplemented with 5 ML, Mel GS (ScienCell Research Laboratories, Catalog number 2252), 2.5 ML FBS (ScienCell Research Laboratories, Catalog number 0002) and 5 ML penicillin/Streptomycin solution (ScienCell Research Laboratories, Catalog number 0503), which is a complete medium designed for optimal growth of normal human dermal-derived melanocytes in vitro.
Two mitochondrial inhibitors Oligomycin (Sigma Aldrich # O4876) and Rotenone (Sigma Aldrich #R8875) were used. An optimal concentration of 0.5 uM were used for both melanoma cell lines and HEM added to the growth medium and removed after the irradiation. Dilutions were made in DMSO according to manufacturer's instructions.
Melanoma cell lines WC00046, WC00060 and WC00081 (purchased from Coriell Institute of Camden, N.J.) were seeded at 5×10^5 cells in T-25 culture flasks (BD-Falcon, Franklin Lakes, N.J., Catalog #356536 or equivalent) containing either RPMI media (Invitrogen, Carlsbad, Calif., Catalog #11875119 or equivalent) with 10% fetal bovine serum (FBS; ATCC Catalog #30-2020 or equivalent), 1% Penicillin/Streptomycin (GIBCO, Carlasbad, Calif., Catalog #15140 or equivalent) or RPMI media with 10% FBS, 1% Penicillin/Streptomycin, 5 μM Oligomycin (Sigma-Aldrich, St. Louis, Mo., Catalog #04876) or RPMI media with 10% FBS, 1% Penicillin/Streptomycin, 5 μM Rotenone (Sigma-Aldrich, St. Louis, Mo., Catalog #R8875). Human Epidermal Melanocytes (HEM) (ScienCell Research Laboratories, Carlsbad, Calif., Catalog #2220) were seeded at 5×10^5 cells in a T-25 culture flask (BD-Falcon, Franklin Lakes, N.J., Catalog #356536 or equivalent) containing either Mel-M media (ScienCell Research Laboratories, Carlsbad, Calif., Catalog #2201) or Mel-M media, 5 μM Oligomycin or Mel-M media, 5 μM Rotenone. Cells were allowed to settle and adhere to the T-25 culture flasks by overnight incubation in a humidified incubator at 37° C., 5% CO2. […] Cells were counted and cell survival (%) was recorded two (2) days and seven (7) days post radiation.

[2] = system: Human Epidermal Melanocytes (HEM); test: as above; assay type: cell-based; details: doses 2 Gy, 4 Gy and 8 Gy at 2,400 mu/min and 400 mu/min, compared to untreated cells, FIG. 1B
Experimental: Three melanoma cell lines; WC00046, WC00060 and WC00081 were used in these examples, in which WC00046 was the most aggressive cell line (metastatic stage II), WC00060 was least aggressive (stage I, primary tumor site) and WC00081 was the medium aggressive (malignant melanoma primary site), purchased from Coriell Institute of Camden, N.J. The primary HEM (human epidermal melanocytes) was purchased from ScienCell Research Laboratories of Carlsbad, Calif. (#2220). Melanoma cells were grown in RPMI (Invitrogen) with 10% FBS, 1% Penicillin/Streptomycin. […]
Melanoma cell lines WC00046, WC00060 and WC00081 (purchased from Coriell Institute of Camden, N.J.) were seeded at 5×10^5 cells in T-25 culture flasks (BD-Falcon, Franklin Lakes, N.J., Catalog #356536 or equivalent) containing either RPMI media (Invitrogen, Carlsbad, Calif., Catalog #11875119 or equivalent) with 10% fetal bovine serum (FBS; ATCC Catalog #30-2020 or equivalent), 1% Penicillin/Streptomycin (GIBCO, Carlasbad, Calif., Catalog #15140 or equivalent) or RPMI media with 10% FBS, 1% Penicillin/Streptomycin, 5 μM Oligomycin (Sigma-Aldrich, St. Louis, Mo., Catalog #04876) or RPMI media with 10% FBS, 1% Penicillin/Streptomycin, 5 μM Rotenone (Sigma-Aldrich, St. Louis, Mo., Catalog #R8875). […] Cells were counted and cell survival (%) was recorded two (2) days and seven (7) days post radiation.

[3] = system: melanoma cells; test: Mitotracker Red assay of mitochondrial activity in irradiated cells; assay type: cell-based, human; details: irradiated cells with mitochondrial respiration blocked, versus non-irradiated control (Dose 0); FIG. 2A
Experimental: Mitotracker Red CMXRos (Invitrogen-M7512) was used for mitotracker assay. Stock solution was prepared in anhydrous DMSO, and the aliquots were stored in −30° C. Stock solution was diluted with culture media prior to the assay. Cells were treated with Mitotracker working solution (200 nM) and incubated for 15 minutes (37° C., 5% CO2). Labeling solution was removed and cells were washed with 1×PBS followed by fixing with 2% PFA (paraformaldehyde) for 30 minutes at room temperature in dark. Cells were washed with 1×PBS and mounted using DAPI and images were taken immediately.
It is well-known that melanoma cells up-regulate mitochondrial respiration to partly overcome the damage caused by radiation treatment (Rafehi, H et al., “Clonogenic assay: adherent cells.” J. Vis. Exp. 2011 Mar. 13;(49). pii: 2573. doi: 10.3791/2573). In this study, Mitotracker® Red was used to determine mitochondrial activity in irradiated melanoma cells and HEM. Mitotracker® Red is a cell permeant mitochondrial probe that diffuses through the plasma membrane of active mitochondria and is retained there even after fixation of cells. That is, mitochondrial activity is a direct measure of the amount of fluorescent Mitotracker® Red accumulated within the mitochondria.
A Mitotracker® Red CMXRos (Invitrogen, Carlsbad, Calif., Catalog #M7512 or equivalent) assay was performed according to manufacturer's instructions. […]

[4] = system: melanoma cells; test: MTT cell proliferation assay in irradiated cells; assay type: cell-based, human; details: seven days post-irradiation, relative to irradiation alone, FIG. 2B
Experimental: MTT assay was carried out to measure the cell proliferation in radiated cells. Cells were seeded in […] and incubated with MTT assay reagent (tetrazolium dye). MTT assay is based on the ability of metabolically active cells to reduce the yellow tetrazolium salt (MTT) by to form insoluble purple formazan crystals, which are solubilized by the addition of a detergent and quantified (i.e., color). The MTT Cell Proliferation Assay measures the cell proliferation rate and conversely, when metabolic events lead to apoptosis or necrosis, the reduction in cell viability. The number of assay steps has been minimized as much as possible to expedite sample processing. The MTT Reagent yields low background absorbance values in the absence of cells. For each cell type the linear relationship between cell number and signal produced is established, thus allowing an accurate quantification of changes in the rate of cell proliferation.
An MTT (tetrazolium dye) assay was performed to measure cell proliferation in irradiated melanoma cells and HEM. The MTT assay is based on the ability of metabolically active cells to reduce yellow tetrazolium salt (MTT) to insoluble purple formazan crystals. The formazan crystals are solubized in detergent and quantified by colorimetric analysis. […]

[5] = system: HEM; test: Colony formation (clonogenic) assay after irradiation; assay type: cell-based, human; details: HEM treated with mitochondrial inhibitors and irradiated; FIG. 4B
Experimental: (§1) Radiated cells were washed with 1× phosphate buffer saline (PBS), trypsinized and harvested in corning tubes (15 ml, BD Falcon). These cells were serially diluted (1:100, 1:1000, 1:10000) and plated in Petri-dishes (Tissue culture Petri dishes, BD Falcon) with complete media and allowed to grow colonies for 7-21 days. Colonies were stained with Hematoxylin for 30 min after fixing the cells in 100% ethanol for about 20-30 min. Petridishes with stained colonies were washed in water, dried overnight and counts were recorded.
(§2) The colony formation assay, or clonogenic assay, is used to determine the ability of a cell to proliferate (i.e., maintain its reproductive ability to form a colony or clone). This assay has been widely used in radiation biology to assess the effects of ionizing radiation on cells (Sadagopan, R. et al., “Characterization and clinical evaluation of a novel IMRT quality assurance system.” Journal of Applied Clinical Medical Physics 10.2 (2009)). In this study, three (3) melanoma cell lines were used to compare the effects of different radiation dose rates on cell proliferation. Melanoma cell lines were selected based on their known resistance to radiation therapy. Human epidermal melanocytes (HEM) were used to determine the effect of ionizing radiation on normal cells.
(§3) Cells were maintained and irradiated as described in Example 1. Irradiated cells were washed with 1× phosphate buffer saline (PBS) (Sigma Aldrich, St. Louis, Mo., Catalog No. P5493, or equivalent), trypsinized and harvested in 15 mL conical tubes (BD-Falcon, Franklin Lakes, N.J., Catalog #352095 or equivalent). The cells were serially diluted (1:100, 1:1000, 1:10000) and plated in Petri-dishes (BD-Falcon, Franklin Lakes, N.J., Catalog #351007 or equivalent) with the appropriate complete media and allowed to grow colonies for 7-21 days. Colonies were stained with hematoxylin (Sigma-Aldrich, St. Louis, Mo., Catalog #H9627 or equivalent) for 30 minutes after fixing the cells in 100% ethanol (VWR, Radnor, Pa., Catalog #71006-012 or equivalent) for about 20-30 minutes. Petridishes with stained colonies were washed in water, dried overnight and colony counts were recorded.

[6] = system: melanoma cells WC00046, WC00060 and WC00081; test: as above; assay type: cell-based, human; details: FIG. 4B
Experimental: as §1, §2, §3

[7] = WC00046, 2,400 mu/min, treated with mitochondrial inhibitors
[8] = WC00046, WC00060 and WC00081, 2,400 mu/min, relative to irradiation alone

Row | SMILES | cell killing of melanoma cells [1] | survival rates [1] | survival rates [2] | mitochondrial activity (Mitotracker Red fluorescence) [3] | cell survival (%) [4] | viability and proliferation [5] | cell survival (%) [6, 7] [%] | cell survival (%) [6, 8]
1 | CC[C@H]1/C=C/C=C/C[C@@H](C)[C@H](O)[C@@](C)(O)C(=O)[C@@H](C)[C@H](O)[C@@H](C)C(=O)[C@@H](C)[C@H](O)[C@@H](C)/C=C/C(=O)O[C@@H]2[C@H](C)[C@H](CC1)O[C@]1(CC[C@H](C)[C@H](C[C@@H](C)O)O1)[C@H]2C [Oligomycin] | augment the cell killing | significantly lower survival rates | significantly lower survival rates | reduced below basal levels | further reduced | retained viability and proliferation | 25 | further reduced
2 | C=C(C)[C@H]1Cc2c(ccc3c2O[C@@H]2COc4cc(OC)c(OC)cc4[C@@H]2C3=O)O1 [Rotenone] | augment the cell killing | significantly lower survival rates | significantly lower survival rates | reduced below basal levels | further reduced | retained viability and proliferation | 25 | further reduced
